In the supplement of paper PMC11208160:

Experiment: recombinant barcode read abundance after kanamycin selection (control-corrected) (log10(CPM+1)); higher = more efficient recombination; sequences stand for … in AGTGCAGAGAAAATCGGCCAGTTTTCTCTGCCTGCAGTCCGCATGCCGT…AGATTTATGCAGCGGACTGCCTTTCTCCCAAAGTGATAAACCGGACAGTATCATGGACCGGTTTTCCCGGTAATCCGTATTTGCAAGGTTGGTTTCACT; site = the 11-nt target
How it was run: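 In a pooled screen in E. coli, targets were paired with target-binding loops of the IS621 bridge RNA. Each oligo carried a promoter, a target, a barcode and the first 104 bridge RNA bases driven by J23119, and was Gibson-cloned into a vector holding the remaining 73 bp and a T7-inducible recombinase before co-electroporation with a donor plasmid. Duplicate platings went onto chloramphenicol/ampicillin LB agar as the control or onto chloramphenicol/ampicillin/kanamycin with 0.1 mM IPTG. Recombination efficiency is the averaged, control-corrected count per million of barcodes at recombinant junctions, given as log10(CPM+1).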
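Note: IS621 recombinase and bridge RNA in Escherichia coli cells.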

In order of falling “recombinant barcode read abundance (log10)” value:
1. ATAGGGACTTGGGTTCTAACCTGTTGCTA (site ATAGGGACTTA)  2.91
2. ATAGGACCTTGGGTTCTAACCTGTTGCAG (site ATAGGACCTCT)  2.75
3. ATAGGGACTTGGGTTCTAACCTGTTGCCT (site ATAGGGACTAG)  2.31
4. ATAGTCCCTTGGGTTCTAACCTGTTGCCT (site ATAGTCCCTAG)  2.25
5. ATATGTACTTGGGTTCTAACCTGTTGCAG (site ATATGTACTCT)  2.1
6. ATAGGGACTTGGGTTCTAACCTGTTGCTA (site ATAAGGACTTA)  1.97
7. ATATACGCTTGGGTTCTAACCTGTTGCCT (site ATATACGCTAG)  1.84
8. ATAGTTACTTGGGTTCTAACCTGTTGCCT (site ATAGTTACTAG)  1.73
9. ATATGTGCTTGGGTTCTAACCTGTTGCCG (site ATATGTGCTCG)  1.71
10. ATATCGTCTTGGGTTCTAACCTGTTGCCT (site ATATCGTCTAG)  1.61
11. ATAGGACCTTGGGTTCTAACCTGTTGCCA (site ATAGGACCTTG)  1.57
12. ATAGCGACTTGGGTTCTAACCTGTTGCCT (site ATAGCGACTAG)  1.54
13. ATATGCGCTTGGGTTCTAACCTGTTGCCG (site ATATGCGCTCG)  1.43
14. ATCAAGACTTGGGTTCTAACCTGTTGCCT (site ATCAAGACTAG)  1.42
15. ATAGGAACTTGGGTTCTAACCTGTTGCCT (site ATAGGAACTAG)  1.4
16. ATCACGTCTTGGGTTCTAACCTGTTGCCT (site ATCACGTCTAG)  1.4
17. ATAGCGACTTGGGTTCTAACCTGTTGCCT (site ATAGCAACTAG)  1.18
18. ATCACACCTTGGGTTCTAACCTGTTGCCT (site ATCACACCTAG)  0.761
19. ATAGGGACTTGGGTTCTAACCTGTTGCTA (site ATATGGACTTA)  0.759
20. ATAGGACCTTGGGTTCTAACCTGTTGCCA (site ATAGGACCTCG)  0.653
21. ATAGTCCCTTGGGTTCTAACCTGTTGCCT (site ATGGTCCCTAG)  0.644
22. ATAGGACCTTGGGTTCTAACCTGTTGCAG (site ATATGTCCTCT)  0.328
23. ATAGGGACTTGGGTTCTAACCTGTTGCTA (site ATACGGACTTA)  0.291
24. ATCAAGACTTGGGTTCTAACCTGTTGCCT (site ATTAAGACTAG)  0.272
25. ATCAAGACTTGGGTTCTAACCTGTTGCCT (site ATAAAGACTAG)  0.266
26. ATATGCGCTTGGGTTCTAACCTGTTGCCG (site ATATGTGCTCG)  0.262
27. ATCAAGACTTGGGTTCTAACCTGTTGCCT (site ATGAAGACTAG)  0.252
28. ATAGGGACTTGGGTTCTAACCTGTTGCCT (site GTAGCGACTAG)  0.177
29. ATAGCGACTTGGGTTCTAACCTGTTGCCT (site ATAGCCACTAG)  0.13
30. ATAGTTACTTGGGTTCTAACCTGTTGCCT (site ATGATTACTAG)  0.129
31. ATATGCGCTTGGGTTCTAACCTGTTGCCG (site ATATGAGCTCG)  0.108
32. ATATGTGCTTGGGTTCTAACCTGTTGCCG (site ATATGGGCTCG)  0.108
33. ATCACACCTTGGGTTCTAACCTGTTGCCT (site CTCACACCTAG)  0.102
34. ATATGCGCTTGGGTTCTAACCTGTTGCCG (site ATATGGGCTCG)  0.0781
35. ATCAGTTCTTGGGTTCTAACCTGTTGCTG (site ATCAGTTCTCA)  0.074
36. ATATACGCTTGGGTTCTAACCTGTTGCCT (site CTATAGGCTAG)  0.0578
37. ATCACGTCTTGGGTTCTAACCTGTTGCCT (site CAGCATCCTCT)  0.0385
38. ATAGGAACTTGGGTTCTAACCTGTTGCCT (site ATGGGCACTAG)  0.0276
39. ATATCGTCTTGGGTTCTAACCTGTTGCCT (site CTATCGTCTAG)  0.0269
40. ATATGTGCTTGGGTTCTAACCTGTTGCCG (site ATATGCGCTCG)  0.0242
41. ATATGTGCTTGGGTTCTAACCTGTTGCCG (site ATATGAGCTCG)  0.0211
42. ATAGCGACTTGGGTTCTAACCTGTTGCCT (site ATAGCTACTAG)  0
43. ATATGTACTTGGGTTCTAACCTGTTGCAG (site ATACGGACTCT)  0
